{
  "source": "paper PMC5585923",
  "about": "“Isolation and characterization of the compounds responsible for the antimutagenic activity of Combretum microphyllum (Combretaceae) leaf extracts” (BMC Complementary and Alternative Medicine, 2017)",
  "key": {"[1]": {"assay": "DPPH free radical scavenging (antioxidant) assay", "settings": "tested 100 to 0.048 μg/ml", "description": "The DPPH free radical scavenging spectrophotometric method described by Mensor et al. and modified by Aderogba et al. was used to evaluate the quantitative antioxidant activity. Reactions were carried out in 96-well microtitre plates and each of the isolated compounds was tested at varying concentrations ranging from 100 to 0.048 μg/ml. Blank solutions were prepared with methanol only while the negative control was DPPH solution (20 μl plus 50 μl methanol). Test sample solution contained compounds serially diluted in methanol. Methanol served as a blank for the microplate reader and the decrease in absorbance was measured at 515 nm. Percentage antioxidant activity (AA%) values were calculated from the absorbance values using the formula: AA%=100−Abssample–Absblank×100/Abscontrol\n(Abs sample is the absorbance of the sample, Abs blank is the absorbance of the blank and Abs control is the absorbance of the control). L-ascorbic acid (vitamin C) was used as a positive control (antioxidant agent). The EC50 value, defined as the concentration of the sample leading to 50% reduction of the initial DPPH concentration, was calculated from the separate linear regression of plots of the mean percentage of the antioxidant activity against concentration of the test extracts obtained from the three replicate assays. The results are expressed as EC50 values obtained from the regression plots."}, "[2]": {"system": "Ehrlich ascites carcinoma (EAC) cell line", "parameters": "method as in Ramesh and colleagues (2012)", "settings": "EAC cells, 100 μg/ml, ref Ramesh and colleagues (2012); cited from earlier work"}, "[3]": {"system": "Dalton's lymphoma (DLA) cell line", "parameters": "method as in Ramesh and colleagues (2012)", "settings": "DLA cells, 100 μg/ml, ref Ramesh and colleagues (2012); cited from earlier work"}, "[4]": {"system": "Salmonella typhimurium TA98", "assay": "Ames test, mutagenicity, TA98"}, "[5]": {"system": "human hepatocellular carcinoma (C3A) cells", "assay": "MTT cytotoxicity assay", "type": "cell-based", "settings": "Homo sapiens; C3A cells, 200 μg/ml; read-out: inhibition of cell growth", "description": "(§1) Briefly, the cells were maintained in minimal essential medium supplemented with 10% foetal calf serum and sodium pyruvate. Cell suspensions were prepared from confluent monolayer cultures and plated at a density of 5 × 10^4 cells/ml and a total of 200 μl of the cell suspension was plated in a 96-well culture plate. After incubation at 37 °C in a 5% CO2 incubator, the cells were treated with different concentrations of the isolated compounds ranging from 10 to 200 μg/ml and incubated for 2 days. Doxorubicin chloride was used as the positive control. The wells were washed with PBS and fresh medium (200 μl) was then added to the wells. MTT (Sigma) dissolved in PBS (30 μl) was added to each well and incubated for 4 h at 37 °C. The medium was removed and MTT formazan crystals were dissolved in 50 μl DMSO. The amount of MTT reduction was measured immediately by detecting the absorbance using a microplate reader (BioTek Synergy, Analytical and Diagnostic Products, South Africa) at a wavelength of 570 nm. The percentage of cell viability was calculated using the formula below: %cell viability=Mean Absorbance of sample/Mean Absorbance of control×100\n(§2) The intensity of the MTT formazan produced by living metabolically active cells is directly proportional to the number of live cells present (Mosmann, [14])."}, "MTT cytotoxicity assay": {"assay": "MTT cytotoxicity assay", "type": "cell-based", "settings": "human; for viability at 2 days, 200 μg/ml: 200 μg/ml (highest concentration tested), read-out: percentage cell viability", "description": "as §1, §2"}, "[6]": {"system": "Salmonella typhimurium TA100", "assay": "Ames test, antimutagenicity against 4-NQO, TA100", "settings": "for antimutagenic activity: TA100, against 4-NQO", "experimental": "(§3) Briefly, 100 μl of bacterial stock were incubated in 20 ml of Oxoid Nutrient broth for 16 h at 37 °C on a rotary shaker. Of this overnight culture, 0.1 ml was added to 2.0 ml of top agar (containing histidine-biotin) together with 0.1 ml test solution and 0.5 ml phosphate buffer. […] To determine antimutagenicity, the test solution contained 50 μl test sample and 50 μl positive control). The top agar mixture was poured over the surface of a minimal agar plate and incubated for 48 h at 37 °C. After incubation the numbers of revertant colonies (mutants) in each plate were counted.\n(§4) Where T is the number of revertants per plate in the presence of mutagen and the test solution and M is the number of revertants per plate in the positive control. All cultures were prepared in triplicate (except for the solvent control where five replicates were used). Absence of toxicity was confirmed when a background layer of bacterial growth, which should normally be present was observed."}, "[7]": {"system": "Salmonella typhimurium TA98", "assay": "Ames test, antimutagenicity against 4-NQO, TA98", "settings": "for antimutagenic activity: TA98, against 4-NQO", "experimental": "as §3, §4"}, "[8]": {"system": "Salmonella typhimurium TA102", "assay": "Ames test, antimutagenicity against MMC, TA102", "settings": "for antimutagenic activity: TA102, against MMC", "experimental": "as §3, §4"}, "[9]": {"parameters": "method as in earlier work", "settings": "100 μg/ml, cell-free system, ref 22 Manna et al.; cited from earlier work"}, "[10]": {"system": "Salmonella typhimurium TA100", "assay": "Ames test, mutagenicity, TA100"}, "[11]": {"settings": "C3A hepatocellular carcinoma cells, C3A cells, MTT, 2 days, 10 to 200 μg/ml, read-out: LC50"}},
  "note": "Where two headings read alike, the source gives them in different places.",
  "data": [
    {"smiles": "CC1(C)CC[C@]2(C(=O)O)CC[C@]3(C)C(=CC[C@@H]4[C@@]5(C)C[C@@H](O)[C@H](O)[C@@](C)(CO)[C@@H]5CC[C@]43C)[C@@H]2C1", "note": "[Arjunolic acid, arjunolic acid]", "values": [
      {"measurement": "EC50, DPPH free radical scavenging", "setting": "[1]", "value": "6.25 ± 0.29", "unit": "µg/mL"},
      {"measurement": "inhibition of cell growth", "setting": "[2]", "value": "up to 70%"},
      {"measurement": "inhibition of cell growth", "setting": "[3]", "value": "up to 70%"},
      {"measurement": "Mean number of revertant colonies per plate (±SD)", "setting": "[4]; TA98, 5 μg/ml", "value": "26.67 ± 1.15"},
      {"measurement": "Mean number of revertant colonies per plate (±SD)", "setting": "[4]; TA98, 50 μg/ml", "value": "28.33 ± 3.78"},
      {"measurement": "Mean number of revertant colonies per plate (±SD)", "setting": "[4]; TA98, 500 μg/ml", "value": "33.00 ± 2.65"},
      {"measurement": "inhibition at 200 µg/mL", "setting": "[5]", "value": 66, "unit": "%"},
      {"measurement": "CC50 at 2 days", "setting": "MTT cytotoxicity assay; [11]", "value": "106 ± 5.11", "unit": "µg/mL"},
      {"measurement": "inhibition at 500 µg/mL", "setting": "[6]; Salmonella enterica, TYPHIMURIUM, read-out: percentage antimutagenicity (inhibition of mutagenic effect of 4-NQO), TA100, 500 μg/ml (highest concentration tested), 4-NQO 1 μg/ml", "value": "36 ± 1.5", "unit": "%"},
      {"measurement": "percentage antimutagenicity (inhibition of mutagenic effect of 4-NQO)", "setting": "[6]; TA100, 500 μg/ml (highest concentration tested), 4-NQO 1 μg/ml", "value": "≤ 35.84 ± 1.45", "unit": "%"},
      {"measurement": "antimutagenic activity", "setting": "[6]", "value": "most active"},
      {"measurement": "inhibition at 500 µg/mL", "setting": "[7]; Salmonella enterica, TYPHIMURIUM, read-out: percentage antimutagenicity (inhibition of mutagenic effect of 4-NQO), TA98, 500 μg/ml (highest concentration tested), 4-NQO 2 μg/ml", "value": "42 ± 9.6", "unit": "%"},
      {"measurement": "antimutagenic activity", "setting": "[7]", "value": "most active"},
      {"measurement": "inhibition at 500 µg/mL", "setting": "[8]; Salmonella enterica, TYPHIMURIUM, read-out: percentage antimutagenicity (inhibition of mutagenic effect of MMC), TA102, 500 μg/ml (highest concentration tested), MMC 1 μg/ml", "value": "44 ± 0.18", "unit": "%"},
      {"measurement": "percentage antimutagenicity (inhibition of mutagenic effect of MMC)", "setting": "[8]; TA102, 500 μg/ml (highest concentration tested), MMC 1 μg/ml", "value": "≤ 43.78 ± 0.18", "unit": "%"},
      {"measurement": "antimutagenic activity", "setting": "[8]", "value": "most active"},
      {"measurement": "DPPH free radical scavenging activity", "setting": "[9]", "value": "up to 80%"},
      {"measurement": "Mean number of revertant colonies per plate (±SD)", "setting": "[10]; TA100, 5 μg/ml", "value": "107.33 ± 1.15"},
      {"measurement": "Mean number of revertant colonies per plate (±SD)", "setting": "[10]; TA100, 50 μg/ml", "value": "104.33 ± 2.52"},
      {"measurement": "Mean number of revertant colonies per plate (±SD)", "setting": "[10]; TA100, 500 μg/ml", "value": "109.00 ± 8.72"}
    ]},
    {"smiles": "O=C1O[C@H]([C@@H](O)CO)C(O)=C1O", "note": "[Ascorbic acid, L-ascorbic acid, reference compound]", "values": [
      {"measurement": "EC50, DPPH free radical scavenging", "setting": "[1]", "value": "0.51 ± 0.08", "unit": "µg/mL"}
    ]},
    {"smiles": "COc1cccc2c1C(=O)c1c(O)c3c(c(O)c1C2=O)C[C@@](O)(C(=O)CO)C[C@@H]3O[C@H]1C[C@H](N)[C@H](O)[C@H](C)O1", "note": "[Doxorubicin, Doxorubicin chloride, reference compound]", "values": [
      {"measurement": "CC50 at 2 days", "setting": "MTT cytotoxicity assay", "value": "640 ± 32", "unit": "nM"}
    ]},
    {"smiles": "CCCCCCCCCCCCCCCCCCCC(=O)O", "note": "[Eicosanoic acid, eicosanoic acid]", "values": [
      {"measurement": "EC50, DPPH free radical scavenging", "setting": "[1]", "value": ">100", "unit": "µg/mL"},
      {"measurement": "Mean number of revertant colonies per plate (±SD)", "setting": "[4]; TA98, 5 μg/ml", "value": "28.67 ± 5.51"},
      {"measurement": "Mean number of revertant colonies per plate (±SD)", "setting": "[4]; TA98, 50 μg/ml", "value": "29.33 ± 4.04"},
      {"measurement": "Mean number of revertant colonies per plate (±SD)", "setting": "[4]; TA98, 500 μg/ml", "value": "27.77 ± 1.53"},
      {"measurement": "CC50 at 2 days", "setting": "MTT cytotoxicity assay", "value": "> 200", "unit": "µg/mL"},
      {"measurement": "viability at 2 days, 200 μg/ml", "setting": "MTT cytotoxicity assay; C3A cells", "value": "50.1 ± 6.21", "unit": "%"},
      {"measurement": "Mean number of revertant colonies per plate (±SD)", "setting": "[10]; TA100, 5 μg/ml", "value": "112.33 ± 2.89"},
      {"measurement": "Mean number of revertant colonies per plate (±SD)", "setting": "[10]; TA100, 50 μg/ml", "value": "102.67 ± 4.73"},
      {"measurement": "Mean number of revertant colonies per plate (±SD)", "setting": "[10]; TA100, 500 μg/ml", "value": "108.67 ± 5.03"}
    ]},
    {"smiles": "CCCCCCCCCCCCCCCCCCCCCCCCO", "note": "[n-Tetracosanol, n-tetracosanol]", "values": [
      {"measurement": "EC50, DPPH free radical scavenging", "setting": "[1]", "value": ">100", "unit": "µg/mL"},
      {"measurement": "Mean number of revertant colonies per plate (±SD)", "setting": "[4]; TA98, 5 μg/ml", "value": "23.67 ± 4.51"},
      {"measurement": "Mean number of revertant colonies per plate (±SD)", "setting": "[4]; TA98, 50 μg/ml", "value": "35.67 ± 9.71"},
      {"measurement": "Mean number of revertant colonies per plate (±SD)", "setting": "[4]; TA98, 500 μg/ml", "value": "30.00 ± 7.81"},
      {"measurement": "viability at 2 days, 200 μg/ml", "setting": "MTT cytotoxicity assay; C3A hepatocellular carcinoma cells, C3A cells", "value": "59.7 ± 7.23", "unit": "%"},
      {"measurement": "CC50 at 2 days", "setting": "MTT cytotoxicity assay; [11]", "value": "> 200", "unit": "µg/mL"},
      {"measurement": "antimutagenic activity", "setting": "[6]", "value": "least active compound"},
      {"measurement": "antimutagenic activity", "setting": "[7]", "value": "least active compound"},
      {"measurement": "antimutagenic activity", "setting": "[8]", "value": "least active compound"},
      {"measurement": "Mean number of revertant colonies per plate (±SD)", "setting": "[10]; TA100, 5 μg/ml", "value": "127.00 ± 7.21"},
      {"measurement": "Mean number of revertant colonies per plate (±SD)", "setting": "[10]; TA100, 50 μg/ml", "value": "121.33 ± 2.52"},
      {"measurement": "Mean number of revertant colonies per plate (±SD)", "setting": "[10]; TA100, 500 μg/ml", "value": "125.00 ± 8.18"}
    ]}
  ]
}
